One series deals with MRSA HBP10. Description: Antibacterial MIC, broth microdilution with resazurin. Type of series: cell-based, Staphylococcus aureus. The conditions noted are these: Staphylococcus aureus; MRSA HBP10, Gram-positive; read-out: MIC. The source says: (§1) Methicillin-resistant Staphylococcus aureus (MRSA), methicillin-susceptible S. aureus (MSSA), and Gram-negative clinical isolates of bacteria [Escherichia coli (9637) and Serratia marcescens ATCC 13880] were used for this study. […] MSSA HBP10, MSSA LUU7, MSSA R113, S. aureus ONE9, and MSSA POB2 were isolated in Hawaiʻi (Gerken et al. [2021]). Mueller Hinton Broth (MHB, GTIN:00382902979630, Becton, Dickinson and Company, Franklin Lakes, NJ, USA) and Mueller Hinton Agar (MHA, GTIN:00382902252504, Becton, Dickinson and Company, Franklin Lakes, NJ, USA,) were used for bacterial inoculation. MRSA was a pathogen strain causing hospital-acquired infections in 1982. This strain easily acquires resistance to antibiotics, such as vancomycin. MSSA strains isolated from the Island of Hawaiʻi included: Honolʻii Beach Park (HBP10) carry the genes erm(C), aph(3′)-III, and mecA, which provide resistance to macrolide, aminoglycoside, and beta-lactam antibiotics, respectively; Wailuku River (LUU7) which contains the blaZ gene (beta-lactam resistance) (Gerken et al. [2021]). Richardson’s Beach Park (R113) and Onekahakaha (ONE9) which is known for its virulence factors (hlgA, hlgB, hlgC, lukD, and lukE).
(§2) The minimum inhibitory concentrations (MICs) were determined using a two-fold serial dilution method with MHB following the recommendations of the Clinical and Laboratory Standards Institute (CLSI [2012]; Elshikh et al. [2016]). In brief, serial two-fold dilutions of the samples in DMSO were mixed with MHB in a 96-well microplate. Then, 50 µL of bacteria suspension was added to each well, resulting in a final concentration of 1 × 10^4 colony-forming units/well. The plates were incubated at 35–37 °C for 18–24 hr. After incubation, 10 µL of 0.18% resazurin (Cat. No. R7017, Sigma-Aldrich, USA) was added to each well (Elshikh et al. [2016]). The MIC was assessed within 2–3 hr after the addition of resazurin. All antimicrobial assays were performed in triplicate, using vancomycin (Cat. No. SBR00001, Sigma-Aldrich, USA) and gentamicin (Cat. No. G1397, Sigma-Aldrich, USA) as standard controls.

The next series relates to MRSA POB2. The series is described as above. Type of series: cell-based, Staphylococcus aureus. The following applies: Staphylococcus aureus; MRSA POB2, Gram-positive; read-out: MIC.
Source text: as §1, §2

The next series deals with S. aureus NEWMAN. The description is as above. Type of series: cell-based, Staphylococcus aureus. The following applies: Staphylococcus aureus; S. aureus NEWMAN, Gram-positive; read-out: MIC.
Source text: as §1, §2

A further series relates to S. aureus 8325-4. The description is as above. The format is cell-based. The following applies: Staphylococcus aureus, 83254; S. aureus 8325-4, Gram-positive; read-out: MIC.
Source text: as §1, §2

The next series has as its system S. aureus ONE9. The series is described as above. The following applies: Staphylococcus aureus; S. aureus ONE9, Gram-positive; read-out: MIC. Type of series: cell-based.
Source text: as §1, §2

In a further series the test system is MSSA LUU7. Described as above. The conditions noted are these: Staphylococcus aureus; MSSA LUU7, Gram-positive; read-out: MIC. Type of series: cell-based.
Source text: as §1, §2

A further series concerns MRSA USA300. The series is described as above. The conditions noted are these: Staphylococcus aureus; MRSA USA300, Gram-positive; read-out: MIC. Type of series: cell-based.
Source text: as §1, §2

The subject of the next series is E. coli. The series is described as above. The format is cell-based. The following applies: Escherichia coli, Gram-negative.
Source text: as §1, §2

The subject of another series is MSSA R113. Described as above. Type of series: cell-based. The conditions noted are these: Staphylococcus aureus; MSSA R113, Gram-positive; read-out: MIC.
Source text: as §1, §2

The subject of a further series is S. marcescent. The series is described as above. Type of series: cell-based, Serratia marcescens. The conditions noted are these: Serratia marcescens, Gram-negative, read-out: MIC.
Source text: as §1, §2

The test system of series [1] is A549 human lung carcinoma epithelial cells. Description: SRB cytotoxicity assay, A549 cells. The conditions noted are these: SRB assay, 72 h, highest concentration tested 100 µg/ml. The procedure: After incubation, cells were fixed with trichloroacetic acid (Cat. No. T4885, Sigma-Aldrich, USA), stained with SRB (Cat. No. S9012, Sigma-Aldrich, USA), and the absorbance was measured at 515 nm. Percent cell death was calculated using the following equation: % Cell death=(ODc−OD0)‐(ODs−OD0)/(ODc−OD0)×100
OD0 = Optical density of cells before treatment (baseline reading).
ODC = Optical density of untreated control cells after 72 h.
ODS = Optical density of cells treated with the test sample after 72 h.
Non-linear regression analysis was performed using GraphPad Prism to calculate the IC50 value. This value reflects the concentration needed to inhibit cell growth by 50%.
All data are presented as mean ± standard error of the mean (SEM) and were collected from three separate experiments. Statistical analyses were conducted using Student’s t-test or ANOVA, followed by Tukey’s multiple comparisons test. Significance is indicated by *p < 0.05, **p < 0.01, and ***p < 0.001.

For series [2], the system named is LPS-induced nitric oxide (NO) production in RAW 264.7 cells. Description: Inhibition of NO generation in LPS-induced RAW 264.7 cells (Griess). The format is cell-based, murine. The conditions noted are these: RAW 264.7 cells, LPS-induced, highest concentration 50 μg/mL. The procedure:
The nitrite concentration in the culture medium was measured to indicate nitric oxide (NO) production as previously described (Min et al. [2009]). The murine macrophage RAW 264.7 cell line was obtained from ATCC, Manassas, VA, USA, and maintained in Dulbecco’s modified Eagle’s medium supplemented with 10% heat-inactivated FBS (Cat. No. A5670801, Gibco BRL Co, Grand Island, NY, USA), penicillin G (100 units/mL) (Cat. No. P7794, Sigma-Aldrich, USA), streptomycin (100 µg/mL) (Cat. No. S9137, Sigma-Aldrich, USA), and L-glutamine (2 mM) (Cat. No. 25030081, Gibco BRL Co, Grand Island, NY, USA). In brief, RAW 264.7 cells were seeded at a density of 4 × 10^4 cells/well in phenol red-free media (Cat. No. 11835030, Gibco, USA) in a 96-well plate, and incubated in a humidified incubator with 5% CO2 at 37 °C for 24 hr. […] The concentration of nitric oxide production was assessed using the Griess reagent, which consists of a 1:1 (v/v) mixture of 1% sulfanilamide (Cat No. A13001, Alfa Aesar, Massachusetts, USA) in H3PO4 and N-(1-naphthyl)ethylenediamine dihydrochloride (Cat. No. 102397, MP Biomedicals, USA). Absorbance was recorded with a microplate reader (SynergyMx, BioTeK, Winooski, VT, USA) at 540 nm. A standard curve was created using sodium nitrite (1–100 μM) (Cat. No. 44227, Alfa Aesar, Massachusetts, USA). A sulforhodamine B (SRB) assay was employed to assess the cellular viability of the samples with RAW 264.7 cells under a similar experimental setup. The final % inhibition of NO production was adjusted based on cell viability.

Another series concerns S. aureus CART817. Description: Antibacterial MIC, broth microdilution with resazurin. Type of series: cell-based. The following applies: Staphylococcus aureus; S. aureus CART817, Gram-positive; read-out: MIC. The procedure: as §2
Series [3] relates to ROS/RNS generation in RAW 264.7 cells. Description: Intracellular ROS/RNS levels in LPS-induced RAW 264.7 cells (H2DCF-DA). Type of series: cell-based. The following applies: Mus musculus, RAW264.7; RAW 264.7 cells, H2DCF-DA dye, LPS 1 μg/mL; read-out: IC50, inhibition of LPS-induced ROS/RNS generation. The procedure:
To measure the formation of intracellular ROS and RNS, we utilized the fluorogenic dye 2′,7′-dichlorodihydrofluorescein diacetate (Cat. No. 4091-99-0, H2DCF-DA, Abcam, Boston, MA, USA). This dye detects hydrogen peroxide, peroxyl radicals, and peroxynitrite anions (Kwon et al. [2019]). In brief, RAW 264.7 cells were seeded into a black 96-well plate (Cat. No. 165305, Thermo Fisher, USA) at 4 × 10^4 cells per well and incubated for 24 hr at 37 °C in 5% CO2. Afterward, the cells were treated with or without a sample for 4 hr before adding 1 μg/mL LPS (Cat. No. 00-4976-93, Thermo Fisher, USA) for 20 hr. Once this incubation was complete, the cells were washed twice with fetal bovine serum (FBS)-free media (Cat. No. A5256701, Thermo Fisher, USA) and stained with 10 μM H2DCF-DA (Cat. No. D399, Thermo Fisher, USA) in FBS-free media for 30 min at 37 °C, protected from light. Next, the dye-containing media was discarded, and the cells were washed twice with fresh serum-free media. The relative fluorescent intensity of the cells was measured using a fluorescence plate reader (Synergy H1, BioTeK, Winooski, VT, USA) with excitation/emission at 485 nm/535 nm. Curcumin (Cat. No. C1386-5G, Millipore Sigma, Burlington, MA, USA), a natural phenolic compound with antioxidant activity, was used as positive control. All samples were tested in triplicates. A sulforhodamine B (SRB) assay was conducted to assess cellular viability under a similar experimental setup. The final percentage of inhibition of ROS/RNS generation was calibrated using the % of cell viability.

Data on two compounds can be found in publication PMC12203697, “Bioactive constituents from the edible seaweed Halymenia hawaiiana (Rhodophyta)” (Pharmaceutical Biology, 2025).

SMILES strings stand for the structures. ≈ marks a conversion by molar mass, not a printed value.

Regarding `Nc1cc[nH]c(=O)n1` [Compound 3, cytosine], the MIC in the series with MRSA HBP10, in the series on MRSA POB2, with S. aureus NEWMAN, in the series with S. aureus 8325-4, in the series with S. aureus ONE9 and with MSSA LUU7 was 128 µg/mL (≈ 1150 µM) each time. The minimum inhibitory concentration (MIC) with MRSA USA300, in the series on E. coli, with MSSA R113, in the series on S. marcescent and in the series on S. aureus CART817 was 128 µg/mL (≈ 1150 µM) in each case. In [1], the “cytotoxic response against A549 cells (in words)” value was “no cytotoxic response”. Besides, in series [2], the “NO inhibitory activity (in words)” value is reported as “no significant NO inhibitory activity”.
For the compound `COc1cc(/C=C/C(=O)CC(=O)/C=C/c2ccc(O)c(OC)c2)ccc1O` [Curcumin, reference compound], the IC50 in [3] turned out to be 7.6 ± 0.1 µM.
